Data reported in US20100099725A1, “PEROXISOME PROLIFERATOR ACTIVATED RECEPTOR MODULATORS” (priority 2007, published 2010).

Legend:
PPARδ receptor = target: T1, PPARδ receptor (Homo sapiens, UniProt Q03181); assay: Binding and cotransfection studies, PPARδ ("binding assay")
T1 sequence (Q03181 1-441): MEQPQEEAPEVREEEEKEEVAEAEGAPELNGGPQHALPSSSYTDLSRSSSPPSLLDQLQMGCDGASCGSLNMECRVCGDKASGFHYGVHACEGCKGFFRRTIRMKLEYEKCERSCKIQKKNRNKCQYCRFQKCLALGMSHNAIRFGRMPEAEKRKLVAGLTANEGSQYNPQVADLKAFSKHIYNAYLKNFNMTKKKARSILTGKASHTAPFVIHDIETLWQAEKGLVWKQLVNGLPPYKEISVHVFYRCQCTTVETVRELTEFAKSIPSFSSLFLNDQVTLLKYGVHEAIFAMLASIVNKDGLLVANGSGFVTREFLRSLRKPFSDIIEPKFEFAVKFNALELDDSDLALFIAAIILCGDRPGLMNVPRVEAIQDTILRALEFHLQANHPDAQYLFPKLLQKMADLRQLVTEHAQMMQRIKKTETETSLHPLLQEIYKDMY
Protocol: (§1) DNA-dependent binding (ABCD binding) is carried out using SPA technology with PPAR receptors. Tritium-labeled PPARCX agonists are used as radioligands for generating displacement curves and IC50 values with compounds of the invention. Cotransfection assays are carried out in CV-1 cells. The reporter plasmid contains an acylCoA oxidase (AOX) PPRE and TK promoter upstream of the luciferase reporter cDNA. Appropriate PPARs are constitutively expressed using plasmids containing the CMV promoter. For PPARα, interference by endogenous PPARγ in CV-1 cells is an issue. In order to eliminate such interference, a GAL4 chimeric system is used in which the DNA binding domain of the transfected PPAR is replaced by that of GAL4, and the GAL4 response element is utilized in place of the AOX PPRE. Cotransfection efficacy is determined relative to PPARα agonist reference molecules. Efficacies are determined by computer fit to a concentration-response curve, or in some cases at a single high concentration of agonist (10 μM).
(§2) These studies are carried out to evaluate the ability of compounds of the invention to bind to and/or activate various nuclear transcription factors, particularly huPPARα (“hu” indicates “human”). These studies provide in vitro data concerning efficacy and selectivity of compounds of the invention. Furthermore, binding and cotransfection data for compounds of the invention are compared with corresponding data for marketed compounds that act on huPPARα.

PPARα receptor = target: T2, PPARα receptor (Homo sapiens, UniProt Q07869); assay: Binding and cotransfection studies, PPARα ("binding assay")
T2 sequence (Q07869 174-468 limits assumed): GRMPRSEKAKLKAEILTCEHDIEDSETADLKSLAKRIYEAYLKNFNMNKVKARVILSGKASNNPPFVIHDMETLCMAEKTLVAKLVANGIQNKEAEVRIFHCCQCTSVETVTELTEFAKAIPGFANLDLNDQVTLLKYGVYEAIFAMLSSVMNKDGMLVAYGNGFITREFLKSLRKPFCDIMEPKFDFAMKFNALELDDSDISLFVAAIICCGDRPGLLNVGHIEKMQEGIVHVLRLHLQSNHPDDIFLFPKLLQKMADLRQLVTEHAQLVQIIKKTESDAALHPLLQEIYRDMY
Protocol: as §1, §2

[1] = target: T3, PXR (human SXR ligand binding domain) (Homo sapiens, UniProt O75469); assay: PXR Assay: GAL4PXR/GAL4 response element reporter assay in HuH7 cells; assay type: cell-based; details: 24 h, versus maximum stimulation with rifampicin
T3 construct: expressed in transfected cells; host or cells: HuH7 (human liver) cells
T3 sequence (O75469 146-433 limits assumed): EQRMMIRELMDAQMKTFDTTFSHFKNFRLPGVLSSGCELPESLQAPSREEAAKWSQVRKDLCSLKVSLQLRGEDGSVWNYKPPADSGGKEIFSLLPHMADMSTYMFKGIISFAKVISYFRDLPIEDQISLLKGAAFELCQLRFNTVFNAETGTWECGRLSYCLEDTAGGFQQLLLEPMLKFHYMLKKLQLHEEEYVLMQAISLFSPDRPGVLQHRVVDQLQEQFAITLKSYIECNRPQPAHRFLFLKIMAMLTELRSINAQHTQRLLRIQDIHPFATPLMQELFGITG
Protocol: PXR Assay: GAL4PXR/GAL4 Response Element Reporter Assays in HuH7 Cells:
Human liver HuH7 cells are co-transfected using Fugene. The reporter plasmid, containing five Gal4 binding site and major late promoter of adenovirus upstream of the luciferase reporter cDNA, is transfected with a plasmid constitutively expressing a hybrid receptor consistent of GAL4 DNA binding domain and human SXR ligand binding domain using viral SV40 early promoter. Cells are transfected with 10 μg of total DNA/10^6 cells in T225 cm^2 flasks in DMEM:F12 (3:1) media with 10% charcoal-stripped Fetal Bovine Serum (FBS). After an overnight incubation, transfected cells are trypsinized, plated in 96 well dishes in DMEM:F12 (3:1) media with 10% charcoal-stripped FBS, incubated for 4 h and then exposed to 0.8 nM to 50 μM of test compounds in half log dilutions. After 24 h of incubations with compounds, cells are lysed and luciferase activity is determined Data is fit to a 4 parameter-fit logistics to determine EC50 values. The % efficacy is determined versus maximum stimulation obtained with rifampicin.

[2] = target: T4, Pregnane X Receptor (PXR) (Homo sapiens, UniProt O75469); details: reported in background section; cited from earlier work
T4 sequence (O75469 1-434): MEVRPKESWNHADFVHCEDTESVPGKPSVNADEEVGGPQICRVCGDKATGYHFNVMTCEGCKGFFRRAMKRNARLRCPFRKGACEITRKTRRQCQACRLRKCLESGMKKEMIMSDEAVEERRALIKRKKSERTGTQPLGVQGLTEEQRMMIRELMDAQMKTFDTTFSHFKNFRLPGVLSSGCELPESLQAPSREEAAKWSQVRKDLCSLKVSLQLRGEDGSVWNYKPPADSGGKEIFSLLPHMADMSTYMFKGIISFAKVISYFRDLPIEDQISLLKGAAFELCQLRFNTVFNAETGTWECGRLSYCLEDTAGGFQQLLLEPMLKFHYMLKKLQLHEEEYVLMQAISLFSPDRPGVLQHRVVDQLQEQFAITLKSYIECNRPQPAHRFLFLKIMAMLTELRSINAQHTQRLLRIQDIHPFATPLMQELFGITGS

SMILES | EC50 (PPARδ receptor) | EC50 (PPARα receptor) | PXR (% efficacy versus max stimulation with Rifampicin) [1] | PXR activation [2]
Cc1cc(OCc2nn(-c3ccc(C(F)(F)F)cc3)c(=O)n2C(C)C)ccc1OC(C)(C)C(=O)O [Example 1, 2-{4-[4-Isopropyl-5-oxo-1-(4-trifluoromethyl-phenyl)-4,5-dihydro-1H-[1,2,4]triazol-3-ylmethoxy]-2-methyl-phenoxy}-2-methyl-propionic acid] | 63.4 nM | 309 nM | 32.4% | 
Cc1cc(OCc2nn(-c3ccc(C(F)(F)F)cc3)c(=O)n2-c2ccccc2F)ccc1OC(C)(C)C(=O)O [Example 13] | 14 nM | 19.5 nM | 57.8% | 
Cc1c(C)c2c(c(C)c1O)CCC(C)(COc1ccc(CC3SC(=O)NC3=O)cc1)O2 (stereo not shown) [troglitazone] |  |  |  | activated the Pregnane X Receptor (PXR)
CC(C)(Oc1ccc(OC(CCCC(F)(F)F)c2nn(-c3ccc(C(F)(F)F)cc3)c(=O)n2-c2c(F)cccc2F)cc1)C(=O)O (racemic) [Example 57, 2-(4-{1-[4-(2,6-Difluoro-phenyl)-5-oxo-1-(4-trifluoromethyl-phenyl)-4,5-dihydro-1H-[1,2,4]triazol-3-yl]-5,5,5-trifluoro-pentyloxy}-phenoxy)-2-methyl-propionic acid] | 46.4 nM | 872 nM | 13.5% | 
COCCn1c(COc2ccc(OC(C)(C)C(=O)O)c(C)c2)nn(-c2ccc(C(F)(F)F)cc2)c1=O [Example 2, 2-{4-[4-(2-Methoxy-ethyl)-5-oxo-1-(4-trifluoromethyl-phenyl)-4,5-dihydro-1H-[1,2,4]triazol-3-ylmethoxy]-2-methyl-phenoxy}-2-methyl-propionic acid] | 297 nM | 256 nM | 52.8% | 
